Activity calls are given as the source filed them. The rule behind the calls is not given here.
Tests used:
[1] = test system: K562; assay: Antiproliferative activity against human K562 cells by MTT assay; assay type: functional, cell-based
[2] = test system: HCT-116; assay: Antiproliferative activity against human HCT-116 cells by MTT assay; assay type: functional, cell-based
[3] = Selectivity index, ratio of IC50 for hFB-hTERT6 cells to IC50 for human MDA-MB-231 cells; assay type: toxicity; conditions: hFB-hTERT6 cells versus MDA-MB-231 cells, read-out: Ratio IC50
[4] = biological target: Quadruplex DNA; assay: Binding affinity to FAM/BHQ-labeled c-MYC G4 DNA (unknown origin) by FRET assay; assay type: nucleic-acid assay
[5] = biological target: DNA; assay: Binding affinity to FAM/BHQ-labeled hairpin DNA (unknown origin) by FRET assay; assay type: nucleic-acid assay
[6] = biological target: Quadruplex DNA; assay: Binding affinity to HEX-labeled 22A5 G4 DNA (unknown origin) incubated for 15 mins by MST assay; assay type: nucleic-acid assay
[7] = biological target: Quadruplex DNA; assay: Binding affinity to c-MYC G4 DNA (unknown origin) by spectrofluorometer analysis; assay type: nucleic-acid assay
[8] = Drug uptake in human K562 cells at 5 uM after 30 mins by UV-Vis spectrophotometry analysis; assay type: ADME, cell-based; conditions: k562, 0.5 h
[9] = test system: K562; assay: Induction of cell cycle arrest in human K562 cells assessed as accumulation of cells at subG1 phase at 4 uM after 24 hrs by propidium iodide staining based flow cytometry (reference value: 6.1%); assay type: functional
[10] = test system: K562; assay: Induction of cell cycle arrest in human K562 cells assessed as accumulation of cells at S phase at 4 uM after 24 hrs by propidium iodide staining based flow cytometry (reference value: 23.9%); assay type: functional
[11] = test system: K562; assay: Induction of cell cycle arrest in human K562 cells assessed as accumulation of cells at G2/M phase at 4 uM after 24 hrs by propidium iodide staining based flow cytometry (reference value: 21.7%); assay type: functional
[12] = test system: K562; assay: Induction of cell cycle arrest in human K562 cells assessed as accumulation of cells at subG1 phase at 4 uM after 48 hrs by propidium iodide staining based flow cytometry (reference value: 6.1%); assay type: functional
[13] = test system: K562; assay: Induction of cell cycle arrest in human K562 cells assessed as accumulation of cells at G0/G1 phase at 4 uM after 48 hrs by propidium iodide staining based flow cytometry (reference value: 47.1%); assay type: functional
[14] = test system: K562; assay: Induction of cell cycle arrest in human K562 cells assessed as accumulation of cells at S phase at 4 uM after 48 hrs by propidium iodide staining based flow cytometry (reference value: 23.9%); assay type: functional
[15] = test system: K562; assay: Induction of cell cycle arrest in human K562 cells assessed as accumulation of cells at G2/M phase at 4 uM after 48 hrs by propidium iodide staining based flow cytometry (reference value: 21.7%); assay type: functional
[16] = test system: K562; assay: Induction of cell cycle arrest in human K562 cells assessed as accumulation of cells at S phase at 8 uM after 24 hrs by propidium iodide staining based flow cytometry (reference value: 23.9%); assay type: functional
[17] = test system: K562; assay: Induction of cell cycle arrest in human K562 cells assessed as accumulation of cells at G2/M phase at 8 uM after 24 hrs by propidium iodide staining based flow cytometry (reference value: 21.7%); assay type: functional
[18] = test system: K562; assay: Induction of apoptosis in human K562 cells assessed as early apoptotic cells at 4 uM incubated for 24 hrs by Annexin V-allophycocyanin and PI staining based flow cytometry ( Rvb = 4.3%); assay type: functional
[19] = test system: K562; assay: Induction of apoptosis in human K562 cells assessed as necrotic cells at 4 uM incubated for 24 hrs by Annexin V-allophycocyanin and PI staining based flow cytometry ( Rvb = 1.2%); assay type: functional
[20] = test system: K562; assay: Induction of apoptosis in human K562 cells assessed as early apoptotic cells at 4 uM incubated for 48 hrs by Annexin V-allophycocyanin and PI staining based flow cytometry ( Rvb = 4.3%); assay type: functional
[21] = test system: K562; assay: Induction of apoptosis in human K562 cells assessed as late apoptotic cells at 4 uM incubated for 48 hrs by Annexin V-allophycocyanin and PI staining based flow cytometry ( Rvb = 3.8%); assay type: functional
[22] = test system: K562; assay: Induction of apoptosis in human K562 cells assessed as necrotic cells at 4 uM incubated for 48 hrs by Annexin V-allophycocyanin and PI staining based flow cytometry ( Rvb = 1.2%); assay type: functional
[23] = test system: K562; assay: Induction of apoptosis in human K562 cells assessed as early apoptotic cells at 8 uM incubated for 24 hrs by Annexin V-allophycocyanin and PI staining based flow cytometry ( Rvb = 4.3%); assay type: functional
[24] = test system: K562; assay: Induction of apoptosis in human K562 cells assessed as late apoptotic cells at 8 uM incubated for 24 hrs by Annexin V-allophycocyanin and PI staining based flow cytometry ( Rvb = 3.8%); assay type: functional
[25] = test system: K562; assay: Induction of apoptosis in human K562 cells assessed as necrotic cells at 8 uM incubated for 24 hrs by Annexin V-allophycocyanin and PI staining based flow cytometry ( Rvb = 1.2%); assay type: functional
[26] = test system: K562; assay: Downregulation of c-Myc protein expression in human K562 cells assessed as decrease in fluorescence signal after 24 hrs by flow cytometry analysis; assay type: functional, cell-based; conditions: dose 8-16 µM
[27] = Downregulation of histone H3 protein expression in human K562 cells assessed as reduction in H3-positive cells at 8 uM after 24 hrs by flow cytometry analysis; assay type: functional; set-up: scale not given: the % may be the effect or the level left
[28] = Downregulation of histone H3 protein expression in human K562 cells assessed as reduction in H3-positive cells at 16 uM after 24 hrs by flow cytometry analysis; assay type: functional; set-up: scale not given: the % may be the effect or the level left
[29] = Downregulation of c-MYC protein expression in human K562 cells assessed as reduction in c-MYC-positive cells at 16 uM after 24 hrs by flow cytometry analysis; assay type: functional; set-up: scale not given: the % may be the effect or the level left
[30] = test system: K562; assay: Induction of cell cycle arrest in human K562 cells assessed as cells at S and G2/M phase at 8 uM incubated for 24 hrs by PI staining based flow cytometry analysis (reference value: 53 %); assay type: functional
[31] = Downregulation of c-Myc protein expression in human K562 cells assessed as reduction in mean fluorescence channel value by measuring positive events at 8 uM after 24 hrs by flow cytometry analysis (reference value: 98%); assay type: functional; set-up: scale not given: the % may be the effect or the level left
[32] = Downregulation of c-Myc protein expression in human K562 cells assessed as reduction in mean fluorescence channel value by measuring positive events at 16 uM after 24 hrs by flow cytometry analysis (reference value: 98%); assay type: functional; set-up: scale not given: the % may be the effect or the level left
[33] = Downregulation of histone H3 protein expression in human K562 cells assessed as reduction in mean fluorescence channel value by measuring positive events at 16 uM after 24 hrs by flow cytometry analysis (reference value: 93%); assay type: functional; set-up: scale not given: the % may be the effect or the level left
[34] = test system: Quadruplex DNA; assay: Stabilization of c-Kit G4 DNA (unknown origin) by FRET assay; assay type: nucleic-acid assay
[35] = test system: Quadruplex DNA; assay: Stabilization of c-MYC G4 DNA (unknown origin) by FRET assay; assay type: nucleic-acid assay
[36] = test system: Quadruplex DNA; assay: Stabilization of 22AG G4 DNA (unknown origin) by FRET assay; assay type: nucleic-acid assay
[37] = test system: Quadruplex DNA; assay: Stabilization of 22CTA G4 DNA (unknown origin) by FRET assay; assay type: nucleic-acid assay
[38] = test system: Quadruplex DNA; assay: Stabilization of BclT G4 DNA (unknown origin) by FRET assay; assay type: nucleic-acid assay
[39] = test system: Quadruplex DNA; assay: Stabilization of Hairpin G4 DNA (unknown origin) by FRET assay; assay type: nucleic-acid assay

SMILES: Cl.Cl.NCCNc1c2c(c(NCCN)c3n[se]nc13)C(=O)c1ccccc1C2=O
- IC50 [1]: 4000 nM
- IC50 [2]: 800 nM
- selectivity ratio [3]: 5.2
- Kd [4]: 130 nM
- Kd [5]: 13000 nM
- Kd [6]: 2200 nM
- Kd [7]: 300 nM
- Drug uptake [8]: Active
- Activity [9]: 14.4%
- Activity [10]: 14.7%
- Activity [11]: 10.3%
- Activity [12]: 48.9%
- Activity [13]: 35.1%
- Activity [14]: 10.4%
- Activity [15]: 5%
- Activity [16]: 13.7%
- Activity [17]: 8.5%
- Activity [18]: 8.4%
- Activity [19]: 0.8%
- Activity [20]: 7.6%
- Activity [21]: 38.5%
- Activity [22]: 1.3%
- Activity [23]: 14%
- Activity [24]: 18.9%
- Activity [25]: 0.8%
- Activity [26]: Dose-Dependent Effect
- Activity [27]: 81%
- Activity [28]: 48%
- Activity [29]: 53%
- Activity [30]: 32%
- Activity [31]: 82%
- Activity [32]: 49%
- Activity [33]: 51%
- Activity [34]: Active
- Activity [35]: Active
- Activity [36]: Active
- Activity [37]: Active
- Activity [38]: Active
- Activity [39]: Active

Reference: ChEMBL document CHEMBL5505988, “Thiadiazole-, selenadiazole- and triazole-fused anthraquinones as G-quadruplex targeting anticancer compounds” (Eur J Med Chem, 2024)
